pIC50: −log10 of the molar value. Like-named read-outs stand apart in the source and are kept apart here.
Assays:
SET7/9 [1] = molecular target: T1, SET7/9 (Homo sapiens, UniProt Q8WTS6); assay: In vitro selectivity test against lysine methyltransferase; assay type: biochemical
T1 sequence (Q8WTS6 1-366): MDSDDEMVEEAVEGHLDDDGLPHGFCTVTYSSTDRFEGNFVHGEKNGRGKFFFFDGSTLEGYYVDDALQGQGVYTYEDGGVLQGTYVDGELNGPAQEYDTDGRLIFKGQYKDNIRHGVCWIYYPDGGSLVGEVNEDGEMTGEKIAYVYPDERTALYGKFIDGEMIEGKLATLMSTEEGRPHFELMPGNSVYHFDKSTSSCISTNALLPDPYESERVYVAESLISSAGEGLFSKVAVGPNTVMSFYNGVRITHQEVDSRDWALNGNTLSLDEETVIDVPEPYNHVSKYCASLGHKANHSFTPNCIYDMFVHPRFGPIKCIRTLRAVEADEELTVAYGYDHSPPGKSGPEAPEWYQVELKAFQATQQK
From the text: Für die Enzymhemmung wurde ein Assay verwendet, der auf immobilisierten Oligopeptiden als Enzymsubstrate und den entsprechenden Enzymen beruht. Die Quantifizierung der Methylierung erfolgt über einen Antikörper gegen das Dimethylarginin und die Detektion über einen Europium gelabelten Sekundärantikörper. Die potentesten Verbindungen wurden ebenfalls in-vitro auf ihre Selektivität gegenüber SET7/9, einer Lysinmonomethyltransferase untersucht. Die Methodik der verwendeten Testverfahren ist im Detail in der Dissertation von Astrid Spannhoff, "Neue Testsysteme für Histonmethyltransferasen und Histondemethylasen", Albert-Ludwigs-Universität Freiburg, 2007 beschrieben. Der Offenbarungsgehalt dieser Arbeit wird durch Bezugnahme hier eingeschlossen.

PRMT1 [2] = molecular target: T2, PRMT1 (Homo sapiens, UniProt Q99873); assay: Target-based virtual screening combined with biochemical test, PRMT inhibition of known inhibitors
Target sequence in this assay (Q99873 whole entry): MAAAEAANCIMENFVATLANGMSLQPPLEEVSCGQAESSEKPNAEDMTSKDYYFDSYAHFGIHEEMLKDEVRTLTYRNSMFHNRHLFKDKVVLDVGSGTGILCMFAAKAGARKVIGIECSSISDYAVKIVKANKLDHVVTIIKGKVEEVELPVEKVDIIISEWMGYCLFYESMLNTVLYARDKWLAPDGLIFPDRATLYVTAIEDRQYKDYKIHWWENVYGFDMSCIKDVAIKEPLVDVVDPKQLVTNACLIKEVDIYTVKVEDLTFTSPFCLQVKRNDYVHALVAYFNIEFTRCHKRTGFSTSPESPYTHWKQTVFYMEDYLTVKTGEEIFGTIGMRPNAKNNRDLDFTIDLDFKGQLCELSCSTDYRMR

SET7/9 [3] = molecular target: T1, SET7/9; conditions: as described, Cheng et al.; cited from earlier work
PRMT1 [4] = molecular target: T2, PRMT1; conditions: in-vitro, Cheng et al.; cited from earlier work
Target sequence in this assay (Q99873 whole entry, species assumed): as the sequence (Q99873 whole entry) above

In the case of Allantodapson, the pIC50 (SET7/9 [1]) was 4.96, the “Mode of inhibition (Docking- und Kompetitionsexperimente)” value (PRMT1 [2]; conclusion from docking and competition experiments) was “zum Sustrat kompetitive Verbindungen” and the pIC50 (PRMT1 [2]; inhibitors of PRMT from target-based screening) was 5.77.
For `O=C(Nc1ccc2c(O)cc(S(=O)(=O)O)cc2c1)Nc1ccc2c(O)cc(S(=O)(=O)O)cc2c1` [AMI-1], the “Selektivität gegenüber der Lysinmethyltransferase SET7/9” value (SET7/9 [3]) is listed as “selektiv”.
For `O.O.O.O=C([O-])c1ccccc1-c1c2cc(Br)c(=O)c(Br)c-2oc2c(Br)c([O-])c(Br)cc12.[Na+].[Na+]` [AMI-5], the pIC50 (PRMT1 [4]) is listed as 5.85 and the “Selektivität gegenüber der Lysinmethyltransferase SET7/9” value (SET7/9 [3]) is listed as “dualer Inhibitor”.

Reference: EP2221053A1, “Pharmaceutical composition comprising protein methyltransferase I inhibitors and its use for treating tumour diseases” (Albert-Ludwigs-Universität Freiburg, priority 2009, dated 2010)
